Laboratory results taken from ChEMBL document CHEMBL4725429, “Discovery and Evaluation of Pyrazolo[3,4-d]pyridazinone as a Potent and Orally Active Irreversible BTK Inhibitor” (ACS Med Chem Lett, 2020).
pIC50: −log10 of the molar value. One block for each compound: values may come before it.

Tests used:
[1] = target: Tyrosine-protein kinase BTK (Homo sapiens, UniProt Q06187); test: Inhibition of recombinant human His-tagged full length BTK expressed in baculovirus expression system using TK1 as substrate incubated for 60 mins by HTRF assay
[2] = AUC in BALB/c mouse 2 mg/kg, po measured upto 24 hrs by LC-MS/MS analysis; type: ADME, organism-based; design: route oral, dose 2 mg/kg, time <=24; details: in vivo
[3] = Cmax in BALB/c mouse 2 mg/kg, po measured upto 24 hrs by LC-MS/MS analysis; type: ADME, organism-based; design: route oral, dose 2 mg/kg, time <=24; details: in vivo
Mus musculus = test: Antiarthritic activity in po dosed collagen-induced arthritis mouse model assessed as clinical score administered for 14 days and measured for 21 days after dosing; type: functional, organism-based; details: dose mg/kg 3-10, time 14.0 day
[4] = Clearance in Sprague-Dawley rat at 2 mg/kg, iv measured upto 24 hrs by LC-MS/MS analysis; details: in vivo
[5] = Toxicity in mouse assessed as drug tolerance at 3 and 10 mg/kg, po administered for 14 days and observed for 21 days; type: organism-based; details: in vivo, 336 h, dose 3-10 mg/kg, time 14 day
[6] = Oral bioavailability in BALB/c mouse at 2 mg/kg measured upto 24 hrs by LC-MS/MS analysis; type: ADME, organism-based; details: in vivo
[7] = AUC (0 to last) in Sprague-Dawley rat at 10 mg/kg, po measured upto 24 hrs by LC-MS/MS analysis; type: ADME, organism-based; design: route oral, dose 10 mg/kg, time <=24; details: in vivo
[8] = AUC (0 to last) in BALB/c mouse at 1 mg/kg, iv measured upto 24 hrs by LC-MS/MS analysis; type: ADME, organism-based; design: route intravenous, dose 1 mg/kg, time <=24; details: in vivo
[9] = Protein binding in rat plasma at 2 uM incubated for 4 hrs by LC-MS/MS analysis; type: ADME, cell-free; details: read-out: PPB (converted)
[10] = AUC (0 to last) in Sprague-Dawley rat at 2 mg/kg, iv measured upto 24 hrs by LC-MS/MS analysis; type: ADME, organism-based; design: route intravenous, dose 2 mg/kg, time <=24; details: in vivo
[11] = Volume of distribution at steady state in BALB/c mouse at 1 mg/kg, iv measured upto 24 hrs by LC-MS/MS analysis; type: ADME, organism-based; details: in vivo, read-out: Vdss
[12] = Toxicity in mouse assessed as body weight loss at 3 and 10 mg/kg, po administered for 14 days and observed for 21 days; type: organism-based; details: in vivo, 336 h, dose 3-10 mg/kg, time 14 day
[13] = Protein binding in mouse plasma at 2 uM incubated for 4 hrs by LC-MS/MS analysis; type: ADME, cell-free; details: read-out: PPB (converted)
Cytochrome P450 2C19 = Cytochrome P450 2C19 (Homo sapiens, UniProt P33261); test: Inhibition of human liver microsome CYP2C19 using S-mephenytoin as substrate preincubated for 10 mins followed by substrate and NADPH addition and measured after 10 mins by LC-MS/MS analysis
Cytochrome P450 3A4 = Cytochrome P450 3A4 (Homo sapiens, UniProt P08684); test: Inhibition of human liver microsome CYP3A4 using midazolam as substrate preincubated for 10 mins followed by substrate and NADPH addition and measured after 10 mins by LC-MS/MS analysis
[14] = Clearance in BALB/c mouse at 1 mg/kg, iv measured upto 24 hrs by LC-MS/MS analysis; details: in vivo
Cytochrome P450 2D6 = Cytochrome P450 2D6 (Homo sapiens, UniProt P10635); test: Inhibition of human liver microsome CYP2D6 using dextromethorphan as substrate preincubated for 10 mins followed by substrate and NADPH addition and measured after 10 mins by LC-MS/MS analysis
Cytochrome P450 1A2 = target: T1, Cytochrome P450 1A2 (Homo sapiens, UniProt P05177); test: Inhibition of human liver microsome CYP1A2 using phenacetin as substrate preincubated for 10 mins followed by substrate and NADPH addition and measured after 10 mins by LC-MS/MS analysis
T1 sequence (P05177 whole entry): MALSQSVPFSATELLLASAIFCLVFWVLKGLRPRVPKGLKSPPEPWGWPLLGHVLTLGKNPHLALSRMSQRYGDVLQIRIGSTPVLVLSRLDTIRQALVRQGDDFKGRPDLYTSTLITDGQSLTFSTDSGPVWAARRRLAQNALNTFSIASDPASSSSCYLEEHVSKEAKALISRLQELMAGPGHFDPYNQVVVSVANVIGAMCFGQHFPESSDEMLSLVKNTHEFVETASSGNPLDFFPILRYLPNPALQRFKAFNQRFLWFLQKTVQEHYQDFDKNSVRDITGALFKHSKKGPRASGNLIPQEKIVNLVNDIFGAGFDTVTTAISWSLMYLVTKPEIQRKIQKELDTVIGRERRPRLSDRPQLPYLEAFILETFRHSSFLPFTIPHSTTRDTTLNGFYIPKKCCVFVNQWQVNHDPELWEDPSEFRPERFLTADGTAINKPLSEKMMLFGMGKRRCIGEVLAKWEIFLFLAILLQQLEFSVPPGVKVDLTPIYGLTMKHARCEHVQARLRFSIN

[15] = Oral bioavailability in Sprague-Dawley rat at 10 mg/kg measured upto 24 hrs by LC-MS/MS analysis; type: ADME, organism-based; details: in vivo
[16] = Protein binding in human plasma at 2 uM incubated for 4 hrs by LC-MS/MS analysis; type: ADME, cell-free; details: read-out: PPB (converted)
[17] = Cmax in Sprague-Dawley rat at 2 mg/kg, iv measured upto 24 hrs by LC-MS/MS analysis; type: ADME, organism-based; design: route intravenous, time <=24; details: in vivo
[18] = Half life in Sprague-Dawley rat at 2 mg/kg, iv measured upto 24 hrs by LC-MS/MS analysis; type: ADME, organism-based; details: in vivo
[19] = Volume of distribution at steady state in Sprague-Dawley rat at 2 mg/kg, iv measured upto 24 hrs by LC-MS/MS analysis; type: ADME, organism-based; details: in vivo, read-out: Vdss
Cytochrome P450 2C9 = Cytochrome P450 2C9 (Homo sapiens, UniProt P11712); test: Inhibition of human liver microsome CYP2C9 using diclofenac as substrate preincubated for 10 mins followed by substrate and NADPH addition and measured after 10 mins by LC-MS/MS analysis
[20] = Half life in BALB/c mouse at 1 mg/kg, iv measured upto 24 hrs by LC-MS/MS analysis; type: ADME, organism-based; details: in vivo

Chain of Tyrosine-protein kinase BTK (Q06187 whole entry): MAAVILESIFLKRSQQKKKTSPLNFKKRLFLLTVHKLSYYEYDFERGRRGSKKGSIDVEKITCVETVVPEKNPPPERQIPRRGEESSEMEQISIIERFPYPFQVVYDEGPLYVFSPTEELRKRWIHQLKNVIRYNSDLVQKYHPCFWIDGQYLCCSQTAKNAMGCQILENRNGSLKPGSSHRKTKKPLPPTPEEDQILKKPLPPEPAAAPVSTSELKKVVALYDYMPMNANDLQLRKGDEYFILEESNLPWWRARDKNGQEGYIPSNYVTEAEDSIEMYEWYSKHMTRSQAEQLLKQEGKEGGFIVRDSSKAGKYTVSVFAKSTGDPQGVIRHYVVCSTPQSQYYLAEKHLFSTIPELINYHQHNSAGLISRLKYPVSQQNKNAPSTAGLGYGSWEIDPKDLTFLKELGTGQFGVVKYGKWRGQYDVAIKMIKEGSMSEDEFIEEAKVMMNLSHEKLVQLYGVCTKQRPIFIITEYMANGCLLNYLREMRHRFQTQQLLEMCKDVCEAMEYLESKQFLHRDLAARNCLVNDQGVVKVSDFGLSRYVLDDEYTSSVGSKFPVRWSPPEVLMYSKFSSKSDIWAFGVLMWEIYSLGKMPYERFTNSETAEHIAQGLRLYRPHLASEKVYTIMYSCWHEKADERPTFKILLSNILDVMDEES
Chain of Cytochrome P450 2D6 (P10635 whole entry): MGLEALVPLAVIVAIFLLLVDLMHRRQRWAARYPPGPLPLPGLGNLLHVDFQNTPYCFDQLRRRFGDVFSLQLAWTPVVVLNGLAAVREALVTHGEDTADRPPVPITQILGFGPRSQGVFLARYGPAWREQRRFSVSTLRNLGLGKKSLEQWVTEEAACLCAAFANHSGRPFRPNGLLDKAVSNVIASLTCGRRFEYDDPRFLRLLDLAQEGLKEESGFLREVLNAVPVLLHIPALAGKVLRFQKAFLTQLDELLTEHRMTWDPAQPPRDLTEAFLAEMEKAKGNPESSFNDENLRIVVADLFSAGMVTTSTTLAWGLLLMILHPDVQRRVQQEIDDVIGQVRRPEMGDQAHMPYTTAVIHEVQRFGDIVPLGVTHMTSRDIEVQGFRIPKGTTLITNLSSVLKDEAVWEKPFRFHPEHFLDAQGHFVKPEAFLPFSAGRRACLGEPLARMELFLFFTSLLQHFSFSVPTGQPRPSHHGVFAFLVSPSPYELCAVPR
Chain of Cytochrome P450 2C9 (P11712 whole entry): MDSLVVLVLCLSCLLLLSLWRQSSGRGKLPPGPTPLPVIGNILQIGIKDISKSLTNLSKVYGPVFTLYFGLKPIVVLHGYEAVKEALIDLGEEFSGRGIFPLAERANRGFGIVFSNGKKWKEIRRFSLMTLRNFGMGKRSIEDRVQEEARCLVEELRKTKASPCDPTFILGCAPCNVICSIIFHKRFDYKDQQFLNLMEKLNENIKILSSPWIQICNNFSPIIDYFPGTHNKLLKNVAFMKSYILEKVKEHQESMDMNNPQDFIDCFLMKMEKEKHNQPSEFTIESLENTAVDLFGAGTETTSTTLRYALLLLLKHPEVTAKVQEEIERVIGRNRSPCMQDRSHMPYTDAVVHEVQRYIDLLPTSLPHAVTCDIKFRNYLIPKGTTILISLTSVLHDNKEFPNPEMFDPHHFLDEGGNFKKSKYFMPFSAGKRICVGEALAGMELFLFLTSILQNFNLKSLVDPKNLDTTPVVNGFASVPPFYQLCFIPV
Chain of Cytochrome P450 3A4 (P08684 whole entry): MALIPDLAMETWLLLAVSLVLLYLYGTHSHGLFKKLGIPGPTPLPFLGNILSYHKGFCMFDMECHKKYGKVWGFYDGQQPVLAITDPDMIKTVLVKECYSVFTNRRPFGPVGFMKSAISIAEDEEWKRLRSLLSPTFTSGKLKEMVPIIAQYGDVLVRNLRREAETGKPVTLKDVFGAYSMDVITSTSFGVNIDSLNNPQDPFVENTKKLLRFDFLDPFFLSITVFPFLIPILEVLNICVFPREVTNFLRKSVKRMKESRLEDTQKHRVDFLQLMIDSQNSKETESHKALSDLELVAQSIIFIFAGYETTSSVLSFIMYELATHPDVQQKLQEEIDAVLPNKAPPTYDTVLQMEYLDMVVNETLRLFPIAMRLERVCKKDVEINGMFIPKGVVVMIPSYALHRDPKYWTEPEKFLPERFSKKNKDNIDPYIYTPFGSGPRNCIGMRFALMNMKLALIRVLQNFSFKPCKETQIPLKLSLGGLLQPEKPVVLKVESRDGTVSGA
Chain of Cytochrome P450 2C19 (P33261 whole entry): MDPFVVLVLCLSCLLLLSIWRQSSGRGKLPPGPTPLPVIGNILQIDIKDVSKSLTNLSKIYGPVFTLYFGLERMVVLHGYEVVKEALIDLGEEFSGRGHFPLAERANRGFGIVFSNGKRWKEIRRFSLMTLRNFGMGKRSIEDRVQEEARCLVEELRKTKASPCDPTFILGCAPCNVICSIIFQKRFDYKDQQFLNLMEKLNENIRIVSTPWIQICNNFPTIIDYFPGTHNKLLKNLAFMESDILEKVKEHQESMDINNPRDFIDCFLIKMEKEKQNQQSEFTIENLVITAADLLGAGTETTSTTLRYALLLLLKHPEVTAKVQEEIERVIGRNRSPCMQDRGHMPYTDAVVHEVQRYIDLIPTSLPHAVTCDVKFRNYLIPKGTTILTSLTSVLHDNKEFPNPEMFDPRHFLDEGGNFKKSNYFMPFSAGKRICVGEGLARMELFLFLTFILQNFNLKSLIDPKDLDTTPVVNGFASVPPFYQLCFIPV

Structure (SMILES): N#C/C(=C\C1CC1)C(=O)N1CCC[C@@H](n2nc(-c3ccc(Oc4ccccc4)cc3)c3c(N)n[nH]c(=O)c32)C1
pIC50 [1]: 7.66

Structure (SMILES): C=CC(=O)N1CCCC(n2nc(-c3ccc(Oc4ccccc4)cc3)c3cc4c(N)ncnc4cc32)C1 (stereo not drawn)
pIC50 [1]: 5.91

Structure (SMILES): C=CC(=O)N1CCC[C@@H](Nc2ncnc(N)c2C(=O)c2ccc(Oc3ccccc3)cc2)C1
pIC50 [1]: 6.04

Structure (SMILES): Nc1n[nH]c(=O)c2c1c(-c1ccc(Oc3ccccc3)cc1)nn2[C@@H]1CCCN(C(=O)/C=C/CN2CCOCC2)C1
pIC50 [1]: 7.89

Structure (SMILES): C=CC(=O)N1CCC[C@@H](Nc2ncnc3[nH]c4ccc(Oc5ccccc5)cc4c(=O)c23)C1
pIC50 [1]: < 5.00

Structure (SMILES): C=CC(=O)N1CCCC(n2nc(-c3ccc(Oc4ccccc4)cc3)c3cc4c(N)noc4cc32)C1 (stereo not drawn)
pIC50 [1]: 5.33

Structure (SMILES): C=CC(=O)N1CCC[C@@H](Nc2ncnc(N)c2-n2ncc3cc(Oc4ccccc4)ccc32)C1
pIC50 [1]: 5.78

Structure (SMILES): C=CC(=O)N1CCC[C@@H](n2nc(-c3ccc(Oc4ccccc4)cc3)c3c(N)nn(CC)c(=O)c32)C1
pIC50 [1]: < 6.00

Structure (SMILES): C=CC(=O)N1CCC[C@@H](n2nc(-c3ccc(Oc4ccccc4)cc3)c3c(N)ncnc32)C1 [IBRUTINIB]
AUC at 24 h [2]: 21.4 ng·h/mL
Cmax [3]: 55.3 nM
bioavailability [6]: 1.8%
AUC(0-t) at 24 h [7]: 318 ng·h/mL
AUC(0-t) at 24 h [8]: 628 ng·h/mL
fraction unbound at 4 h, 2 µM [9]: 0.022
AUClast ([10]; 24 h): 643 ng·h/mL
fraction unbound at 4 h, 2 µM [13]: 0.038
bioavailability [15]: 10.3%
fraction unbound at 4 h, 2 µM [16]: 0.031
Cmax ([17]; 24 h): 150 ng/mL
t1/2 ([18]; 2 mg/kg, 24 h): 19.2 min
half-life [20]: 20.4 min

Structure (SMILES): C=CC(=O)N1CCC[C@@H](n2nc(-c3ccc(Oc4ccccc4)cc3)c3c(N)nn(CC(F)(F)F)c(=O)c32)C1
pIC50 [1]: < 6.00

Structure (SMILES): C=CC(=O)N1CCC[C@@H](n2nc(-c3ccc(Oc4ccccc4)cc3)c3c(N)noc(=O)c32)C1
pIC50 [1]: < 6.00

Structure (SMILES): C=CC(=O)N1CCC[C@@H](Nc2ncnc3[nH]c(=O)c(-c4ccc(Oc5ccccc5)cc4)cc23)C1
pIC50 [1]: < 5.00

More lines, main results first:

pIC50 [1]: 7.46
Structure (SMILES): CN(C)C/C=C/C(=O)N(C)CCn1nc(-c2ccc(Oc3ccccc3)cc2)c2c(N)n[nH]c(=O)c21

pIC50 [1]: 6.80
Structure (SMILES): C=CC(=O)N1CCC[C@@H](n2nc(-c3ccc(Oc4ccccc4)cc3)c3c(N)nn(C)c(=O)c32)C1

AUC at 24 h [2]: 161 ng·h/mL
Cmax [3]: 290 nM
pIC50 [1]: 8.80
Structure (SMILES): C=CC(=O)N[C@H]1CC[C@@H](n2nc(-c3ccc(Oc4ccccc4)cc3)c3c(N)n[nH]c(=O)c32)CC1

pIC50 [1]: 8.17
Structure (SMILES): C=CC(=O)N1CCCCC(n2nc(-c3ccc(Oc4ccccc4)cc3)c3c(N)n[nH]c(=O)c32)C1 (stereo not drawn)

pIC50 [1]: 7.92
Structure (SMILES): CC#CC(=O)N1CCC[C@@H](n2nc(-c3ccc(Oc4ccccc4)cc3)c3c(N)n[nH]c(=O)c32)C1

pIC50 [1]: 8.01
Structure (SMILES): C=CC(=O)N1CC(n2nc(-c3ccc(Oc4ccccc4)cc3)c3c(N)n[nH]c(=O)c32)C1

pIC50 [1]: 7.34
Structure (SMILES): C=CC(=O)N1CC2(CC(n3nc(-c4ccc(Oc5ccccc5)cc4)c4c(N)n[nH]c(=O)c43)C2)C1

AUC at 24 h [2]: 128 ng·h/mL
Cmax [3]: 252 nM
clearance [4]: 54.6 mL/min/kg
bioavailability [6]: 11.2%
AUC(0-t) at 24 h [7]: 642 ng·h/mL
AUC(0-t) at 24 h [8]: 576 ng·h/mL
fraction unbound at 4 h, 2 µM [9]: 0.003
AUC(0-t) at 24 h ([10]; Sprague-Dawley): 604 ng·h/mL
Vd [11]: 0.82 L/kg
fraction unbound at 4 h, 2 µM [13]: 0.047
pIC50 (Cytochrome P450 2C19): 4.36
pIC50 (Cytochrome P450 3A4): 4.43
clearance [14]: 31.3 mL/min/kg
pIC50 (Cytochrome P450 2D6): < 4.00
pIC50 [1]: 8.68
pIC50 (Cytochrome P450 1A2): < 4.00
bioavailability [15]: 23.7%
fraction unbound at 4 h, 2 µM [16]: 0.025
Cmax ([17]; Sprague-Dawley, read-out: Cmax): 466 ng/mL
half-life ([18]; Sprague-Dawley): 19.2 min
Vd [19]: 1.55 L/kg
pIC50 (Cytochrome P450 2C9): 4.40
half-life [20]: 25.2 min
Structure (SMILES): C=CC(=O)N1CCC[C@@H](n2nc(-c3ccc(Oc4ccccc4)cc3)c3c(N)n[nH]c(=O)c32)C1
Activity (Mus musculus): Dose-dependent effect
Activity [5]: Non-Toxic
Activity [12]: Non-Toxic

pIC50 [1]: 8.38
Structure (SMILES): C=CS(=O)(=O)N1CCC[C@@H](n2nc(-c3ccc(Oc4ccccc4)cc3)c3c(N)n[nH]c(=O)c32)C1

pIC50 [1]: 8.00
Structure (SMILES): C=CC(=O)NC1CCC[C@@H](n2nc(-c3ccc(Oc4ccccc4)cc3)c3c(N)n[nH]c(=O)c32)C1 (stereo partly drawn)

AUC at 24 h [2]: 49.5 ng·h/mL
Cmax [3]: 123 nM
pIC50 [1]: 8.92
Structure (SMILES): C=CC(=O)N(C)CCn1nc(-c2ccc(Oc3ccccc3)cc2)c2c(N)n[nH]c(=O)c21

AUC at 24 h [2]: 68 ng·h/mL
Cmax [3]: 137 nM
pIC50 [1]: 8.85
Structure (SMILES): C=CC(=O)N1CC[C@@H](n2nc(-c3ccc(Oc4ccccc4)cc3)c3c(N)n[nH]c(=O)c32)C1

pIC50 [1]: 8.59
Structure (SMILES): CN(C)C/C=C/C(=O)N1CCC[C@@H](n2nc(-c3ccc(Oc4ccccc4)cc3)c3c(N)n[nH]c(=O)c32)C1
